Measurements as given in EP1336602A1, “Nitrate prodrugs able to release nitric oxide in a controlled and selective way and their use for prevention and treatment of inflammatory, ischemic and proliferative diseases” (Scaramuzzino, Giovanni, priority 2002, dated 2003).

Experiments:
[1] = system: S-nitrosohemoglobin (SNO-Hb); assay: S-nitrosohemoglobin (SNO-Hb) levels in rat blood, photolysis-chemiluminescence; assay type: in vivo, Sprague-Dawely rats; details: 100 mg/Kg i.p., versus endogenous levels
Description: A highly sensitive photolysis-chemiluminescence methodology was used. Nitric oxide, released from Hb-SNO through photolysis, was detected in a chemiluminescence spectrometer by reaction with ozone (McMahon, T. J., and Stamler, J. S. (1999) Methods Enzymol. 301, 99-114).
Blood was obtained from the left ventricle (arterial) and jugular vein (venous) of anesthetized Sprague-Dawely rats: 12 were controls and 12 were treated with 100 mg/Kg of N-[4-(5-p-tolyl-3-trifluoromethyl-1H-pyrazol-1-yl)phenylsulfonyl]-p-nitroxymethylbenzamide (Ela). Red blood cells were isolated by centrifugation at 800 g, washed three times in phosphate buffered saline at 4 °C, lysed by the addition of 4-fold excess volume of deionized water containing 0.5 mM EDTA and desalted rapidly according to the method of Penefsky at 4 °C.
In 24 rats, Hb samples were divided in two aliquots which were then treated or not treated with 10-fold excess HgCl2 which can remove the signal of Hb(Fell)NO.

[2] = male, Wistar, in vivo, po, 1.09 mg/kg

Row | Compound | S-nitrosohemoglobin (SNO-Hb) levels in rat arterial blood ([1]; arterial blood (left ventricle)) | S-nitrosohemoglobin (SNO-Hb) levels in rat venous blood ([1]; venous blood (jugular vein)) | Rat arterial blood pressure [2] [%]
1 | Cc1ccc(-c2cc(C(F)(F)F)nn2-c2ccc(S(=O)(=O)NC(=O)c3ccc(CO[N+](=O)[O-])cc3)cc2)cc1 [Ela, N-[4-(5-p-tolyl-3-trifluoromethyl-1H-pyrazol-1-yl)phenylsulfonyl]-p-nitroxymethylbenzamide] | significantly increase | significantly increase | –
2 | C[C@@H]1C[C@H]2[C@@H]3CCC4=CC(=O)C=C[C@]4(C)[C@@]3(F)[C@@H](O)C[C@]2(C)[C@@]1(O)C(=O)COC(=O)c1ccc(CO[N+](=O)[O-])cc1 [ECXCa, (11β,16α)-9-fluoro-11,17-dihydroxy-21-(p-nitroxymethylbenzoyloxy)-pregna-1,4-diene-3,20-dione] | – | – | 100
